Measured values published in patent publication US11104674B2 (Hoffmann-La Roche Inc., priority 2016, dated 2021).

Tested on: HBsAg
Test: HBsAg assay (chemiluminescence immunoassay of secreted HBsAg)
Type: cell-based, HBV
Conditions: Hepatitis B virus, HepG2.2.15, HBsAg secretion, HepG2.2.15 cells, CLIA of culture supernatant
How it was run: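 HepG2.2.15 cells, in duplicate, treated with three-fold serial compound dilutions (1% DMSO final); secreted HBsAg in supernatant quantified by chemiluminescence immunoassay; IC50 is the concentration reducing HBsAg secretion by 50% versus the DMSO control.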

Row | SMILES | IC50
1 | CC1c2cnc(-c3ncccn3)nc2CCN1c1cc(N2CCOC(C)(C)C2)cc(F)n1 (stereo not drawn) [Example 8, 4-[2-fluoro-6-(5-methyl-2-pyrimidin-2-yl-7,8-dihydro-5H-pyrido[4,3-d]pyrimidin-6-yl)-4-pyridyl]-2,2-dimethyl-morpholine] | 11 nM
2 | CC1c2cnc(-c3ncccn3)nc2CCN1c1cc(N2CC(C(=O)O)CC2=O)cc(F)n1 (stereo not drawn) [Example 145, 1-[2-Fluoro-6-(5-methyl-2-pyrimidin-2-yl-7,8-dihydro-5H-pyrido[4,3-d]pyrimidin-6-yl)-4-pyridyl]-5-oxo-pyrrolidine-3-carboxylic acid] | 5340 nM
3 | CC1c2cnc(-c3ncccn3)nc2CCN1c1cc(N2CCC(C(=O)O)CC2)cc(F)n1 (stereo not drawn) [Example 52, 1-[2-fluoro-6-(5-methyl-2-pyrimidin-2-yl-7,8-dihydro-5H-pyrido[4,3-d]pyrimidin-6-yl)-4-pyridyl]piperidine-4-carboxylic acid] | 1040 nM
4 | CC1c2cnc(-c3ncccn3)nc2CCN1c1cc(F)nc(N2CC3(COC3)C2)c1 (stereo not drawn) [Example 158, 6-[6-Fluoro-4-(5-methyl-2-pyrimidin-2-yl-7,8-dihydro-5H-pyrido[4,3-d]pyrimidin-6-yl)-2-pyridyl]-2-oxa-6-azaspiro[3.3]heptane] | 48 nM
5 | CC1c2cnc(-c3ncccn3)nc2CCN1c1cc(F)cc(N2CCC(F)(F)C2)n1 (stereo not drawn) [Example 23, 6-[6-(3,3-difluoropyrrolidin-1-yl)-4-fluoro-2-pyridyl]-5-methyl-2-pyrimidin-2-yl-7,8-dihydro-5H-pyrido[4,3-d]pyrimidine] | 5 nM
6 | CC1c2cnc(-c3ncccn3)nc2CCN1c1cc(N2CCC2)cc(F)n1 (stereo not drawn) [Example 110, 6-[4-(azetidin-1-yl)-6-fluoro-2-pyridyl]-5-methyl-2-pyrimidin-2-yl-7,8-dihydro-5H-pyrido[4,3-d]pyrimidine] | 8 nM
7 | CCC(=O)N(C)c1cc(F)nc(N2CCc3nc(-c4ncccn4)ncc3C2C)c1 (stereo not drawn) [Example 155, N-[2-Fluoro-6-(5-methyl-2-pyrimidin-2-yl-7,8-dihydro-5H-pyrido[4,3-d]pyrimidin-6-yl)-4-pyridyl]-N-methyl-propanamide] | 86 nM
8 | CC1c2cnc(-c3ncccn3)nc2CCN1c1cc(F)nc(N2CCC2)c1 (stereo not drawn) [Example 147, 6-[2-(Azetidin-1-yl)-6-fluoro-4-pyridyl]-5-methyl-2-pyrimidin-2-yl-7,8-dihydro-5H-pyrido[4,3-d]pyrimidine] | 18 nM
9 | CC1c2cnc(-c3ncccn3)nc2CCN1c1cc(N2CCNC(C(=O)O)C2)cc(F)n1 (stereo not drawn) [Example 50, 4-[2-Fluoro-6-(5-methyl-2-pyrimidin-2-yl-7,8-dihydro-5H-pyrido[4,3-d]pyrimidin-6-yl)-4-pyridyl]piperazine-2-carboxylic acid] | 1940 nM
10 | COCCS(=O)(=O)N1CCN(c2cc(F)nc(N3CCc4nc(-c5ncccn5)ncc4C3C)c2)CC1 (stereo not drawn) [Example 87, 6-[6-fluoro-4-[4-(2-methoxyethylsulfonyl)piperazin-1-yl]-2-pyridyl]-5-methyl-2-pyrimidin-2-yl-7,8-dihydro-5H-pyrido[4,3-d]pyrimidine] | 5 nM
11 | COCC1CCCN1c1cc(F)cc(N2CCc3nc(-c4ncccn4)ncc3C2C)n1 (stereo not drawn) [Example 35, 6-[4-fluoro-6-[2-(methoxymethyl)pyrrolidin-1-yl]-2-pyridyl]-5-methyl-2-pyrimidin-2-yl-7,8-dihydro-5H-pyrido[4,3-d]pyrimidine] | 33 nM
12 | CC1c2cnc(-c3ncccn3)nc2CCN1c1cc(F)cc(N2CCN(S(C)(=O)=O)C(C)(C)C2)n1 (stereo not drawn) [Example 99, 6-[6-(3,3-dimethyl-4-methylsulfonyl-piperazin-1-yl)-4-fluoro-2-pyridyl]-5-methyl-2-pyrimidin-2-yl-7,8-dihydro-5H-pyrido[4,3-d]pyrimidine] | 26 nM
13 | CC(=O)N1CC(Nc2cc(F)nc(N3CCc4nc(-c5ncccn5)ncc4C3C)c2)C1 (stereo not drawn) [Example 140, 1-[3-[[2-fluoro-6-(5-methyl-2-pyrimidin-2-yl-7,8-dihydro-5H-pyrido[4,3-d]pyrimidin-6-yl)-4-pyridyl]amino]azetidin-1-yl]ethanone] | 972 nM
14 | CC1COCCN1c1cc(F)cc(N2CCc3nc(-c4ncccn4)ncc3C2C)n1 (stereo not drawn) [Example 41, 4-[4-fluoro-6-(5-methyl-2-pyrimidin-2-yl-7,8-dihydro-5H-pyrido[4,3-d]pyrimidin-6-yl)-2-pyridyl]-3-methyl-morpholine] | 17 nM
15 | CC1c2cnc(-c3ncccn3)nc2CCN1c1cc(N2CC3(COC3)CC2=O)cc(F)n1 (stereo not drawn) [Example 151, 7-[2-Fluoro-6-(5-methyl-2-pyrimidin-2-yl-7,8-dihydro-5H-pyrido[4,3-d]pyrimidin-6-yl)-4-pyridyl]-2-oxa-7-azaspiro[3.4]octan-6-one] | 27 nM
16 | CC1COCCN1c1cc(F)nc(N2CCc3nc(-c4ncccn4)ncc3C2C)c1 (stereo not drawn) [Example 40, 4-[2-fluoro-6-(5-methyl-2-pyrimidin-2-yl-7,8-dihydro-5H-pyrido[4,3-d]pyrimidin-6-yl)-4-pyridyl]-3-methyl-morpholine] | 10 nM
17 | CC1c2cnc(-c3ccccn3)nc2CCN1c1cc(N2CCN(S(C)(=O)=O)CC2)cc(F)n1 (stereo not drawn) [Example 71, 6-[6-fluoro-4-(4-methylsulfonylpiperazin-1-yl)-2-pyridyl]-5-methyl-2-(2-pyridyl)-7,8-dihydro-5H-pyrido[4,3-d]pyrimidine] | 8 nM
18 | CC1c2cnc(-c3ncccn3)nc2CCN1c1cc(N2CC(O)C2)cc(F)n1 (stereo not drawn) [Example 124, 1-[2-Fluoro-6-(5-methyl-2-pyrimidin-2-yl-7,8-dihydro-5H-pyrido[4,3-d]pyrimidin-6-yl)-4-pyridyl]azetidin-3-ol] | 33 nM
19 | CC1c2cnc(-c3ncccn3)nc2CCN1c1cc(N2CCCC2CO)cc(F)n1 (stereo not drawn) [Example 30, [1-[2-fluoro-6-(5-methyl-2-pyrimidin-2-yl-7,8-dihydro-5H-pyrido[4,3-d]pyrimidin-6-yl)-4-pyridyl]pyrrolidin-2-yl]methanol] | 7 nM
20 | COC1CCN(c2cc(F)nc(N3CCc4nc(-c5ccccn5)ncc4C3C)c2)C1 (stereo not drawn) [Example 83, 6-[6-fluoro-4-(3-methoxypyrrolidin-1-yl)-2-pyridyl]-5-methyl-2-(2-pyridyl)-7,8-dihydro-5H-pyrido[4,3-d]pyrimidine] | 20 nM
21 | CC1c2cnc(-c3ncccn3)nc2CCN1c1cc(N(C)C(=O)C2CC2)cc(F)n1 (stereo not drawn) [Example 156, N-[2-Fluoro-6-(5-methyl-2-pyrimidin-2-yl-7,8-dihydro-5H-pyrido[4,3-d]pyrimidin-6-yl)-4-pyridyl]-N-methyl-cyclopropanecarboxamide] | 30 nM
22 | CC1c2cnc(-c3ncccn3)nc2CCN1c1cc(NC2CCOCC2)cc(F)n1 (stereo not drawn) [Example 48, 2-fluoro-6-(5-methyl-2-pyrimidin-2-yl-7,8-dihydro-5H-pyrido[4,3-d]pyrimidin-6-yl)-N-tetrahydropyran-4-yl-pyridin-4-amine] | 55 nM
23 | CC(=O)N1CCN(c2cc(F)nc(N3CCc4nc(-c5ncccn5)ncc4C3C)c2)CC1 (stereo not drawn) [Example 16, 1-[4-[2-fluoro-6-(5-methyl-2-pyrimidin-2-yl-7,8-dihydro-5H-pyrido[4,3-d]pyrimidin-6-yl)-4-pyridyl]piperazin-1-yl]ethanone] | 14 nM
24 | CC1c2cnc(-c3ncccn3)nc2CCN1c1cc(N2CCCCS2(=O)=O)cc(F)n1 (stereo not drawn) [Example 162, 2-[2-Fluoro-6-(5-methyl-2-pyrimidin-2-yl-7,8-dihydro-5H-pyrido[4,3-d]pyrimidin-6-yl)-4-pyridyl]thiazinane1,1-dioxide] | 15 nM
